Experimental findings from patent publication US11524021B2, “Use of ginsenoside M1 for manufacturing medicament for treating oral cancer” (priority 2018, dated 2022) are described below.

Format in all cases: cell-based
Assay [1] concerns normal human gingival epithelioid cell line SG. Briefly: Toxicity to normal human gingival epithelioid SG cells, Trypan blue exclusion. The note with it: 20 μg/ml, 24 h. Here is the method: (§1) Human normal human gingival epithelioid cell line SG cells were incubated for 24 h with ginsenoside M1 (5˜20 μg/ml), ginsenoside Rh2 (5˜20 μg/ml) or vehicle (0.1% DMSO). The live cell numbers were counted by Trypan blue exclusion method. The data were expressed as mean±SD; n=3. ** and *** indicate a significant difference at the level of p<0.01 and p<0.001, respectively, compared to vehicle-control cells. (One-way ANOVA with Dunnett's multiple comparisons test).
as §1, with “Plate 5×10^5” for “Human”, “SG per 6-cm dish in 2 ml of culture medium and were grown overnight at 37° C. in a 5% CO2 incubator. The” for “SG”, “vehicle. Each group contains a final DMSO concentration of 0.1%. Thereafter, the” for “vehicle (0.1% DMSO). The live”, “method. […]” for “method.”

The subject of assay [2] is human oral cancer OECM-1 cells. Briefly: Viability of human oral cancer OECM-1 cells, Trypan blue exclusion. The following applies: 5˜20 μg/ml, 24 h. On the procedure: Human oral cancer cell line SAS cells (FIG. 1A) or OECM-1 cells (FIG. 1B) were incubated for 24 h with ginsenoside M1 (5˜20 μg/ml), ginsenoside Rh2 (5˜20 μg/ml) or vehicle (0.1% DMSO). The live cell numbers were counted by Trypan blue exclusion method. The data were expressed as mean±SD; n=3. *, ** and *** indicate a significant difference at the level of p<0.05, p<0.01 and p<0.001, respectively, compared to vehicle-control cells. (One-way ANOVA with Dunnett's multiple comparisons test).
Plate 5×10^5 human oral cancer cells SAS per 6-cm dish in 2 ml of culture medium and were grown overnight at 37° C. in a 5% CO2 incubator. The cells were incubated for 24 h with ginsenoside M1 (5˜20 μg/ml), ginsenoside Rh2 (5˜20 μg/ml) or vehicle. Each group contains a final DMSO concentration of 0.1%. Thereafter, the cell numbers were counted by Trypan blue exclusion method. […] The data were expressed as mean±SD; n=3. *, ** and *** indicate a significant difference at the level of p<0.05, p<0.01 and p<0.001, respectively, compared to vehicle-control cells. (One-way ANOVA with Dunnett's multiple comparisons test).

The subject of assay [3] is human oral cancer cells OECM-1. Nature of the assay: Apoptotic DNA breaks, TUNEL assay by flow cytometry. The following applies: 24 h. Here is the method: Human oral cancer cell line OECM-1 cells were incubated for 24 h with ginsenoside M1 (10˜20 μg/ml), 50 μM cistaplatin (CDDP) or vehicle (0.1% DMSO). (FIG. 3A) The apoptotic DNA breaks was assayed by terminal deoxynucleotidyl transferase dUTP nick end labeling (TUNEL) assay using flow cytometry. (FIG. 3B) The cell cycle distribution was determined by PI staining using flow cytometry. (FIG. 3C) The apoptosis level was measured by PI/Annexin V double staining assay using flow cytometry. (FIG. 3D) The activation levels of caspase-9 and caspase-3 were measured by detecting the degradation of pro-caspase-9 and pro-caspase-3 using Western blotting. […] (One-way ANOVA with Dunnett's multiple comparisons test).
To gain further insight into the mode of action of ginsenoside M1, three assays targeting hallmarks of apoptosis, namely (1) the apoptotic DNA breaks assayed by terminal deoxynucleotidyl transferase dUTP nick end labeling (TUNEL) assay, (2) the cell cycle assayed by flow cytometry after propidium iodide (PI)-staining nuclei, (3) the PI/Annexin V double staining assay, and (4) caspase activation were performed. Plate 1×10^6 human oral cancer cells OECM-1 per 6-cm dish in 2 ml of culture medium and were grown overnight at 37° C. in a 5% CO2 incubator. The cells were incubated for 24 h with ginsenoside M1 (10˜20 μg/ml), 50 μM cistaplatin (CDDP) or vehicle. Each group contains a final DMSO concentration of 0.1%. Thereafter, three assays were performed. […] The cells in sub-G1 phase increased after treatment with ginsenoside M1 and CDDP. (FIG. 3B). […] The data were expressed as mean±SD; n=3. ** and *** indicate a significant difference at the level of p<0.01 and p<0.001, respectively, compared to vehicle-control cells. (One-way ANOVA with Dunnett's multiple comparisons test).

Assay [4] has as its system human oral cancer SAS cells. Nature of the assay: Migration of SAS cells, wound healing assay. The note with it: 24 h. Here is the method: (§2) FIGS. 5A-5B show ginsenoside M1 reduced the migration ability of human oral cancer cells. Human oral cancer cell line SAS cells (FIG. 5A) or OECM-1 cells (FIG. 5B) were cultured in 6-cm dish until the cells reached 100% confluence forming a monolayer. A clear zone was created by scratching using a sterile 200-μl pipette tip. The cells were incubated for 24 h (SAS cells) or 18 h (OECM-1 cells) with ginsenoside M1 (5˜10 μg/ml) or (0.1% DMSO). The migration distance was measured and compared to the vehicle-control cells. The data were expressed as mean±SD; n=3. *** indicates a significant difference at the level of p<0.001, compared to vehicle-control cells. (One-way ANOVA with Dunnett's multiple comparisons test).
(§3) The cell migration ability was measured by wound healing assay. Plate 5×10^6 human oral cancer SAS cells or OECM-1 cells per 6-cm dish in 2 ml of culture medium and were grown overnight at 37° C. in a 5% CO2 incubator until the cells reached 100% confluence forming a monolayer. We used a sterile 200-μl pipette tip to create a scratched clear zone on the culture dish, and the wounds photographed by a phase contrast microscope as the baseline. […] The data were expressed as mean±SD; n=3. *** indicates a significant difference at the level of p<0.001, compared to vehicle-control cells. […]

The test system of assay [5] is human oral cancer OECM-1 cells. Briefly: Migration of OECM-1 cells, wound healing assay. The note with it: 18 h. On the procedure:
as §2, §3

Each structure is given as a SMILES string.

On to `CC(C)=CCC[C@](C)(O[C@@H]1OC(CO)[C@@H](O)[C@@H](O)C1O)[C@H]1CC[C@]2(C)C1[C@H](O)CC1[C@@]3(C)CC[C@H](O)C(C)(C)C3CC[C@]12C` (stereo partly drawn) [ginsenoside M1, 20-O-β-D-glucopyranosyl-20(S)-protopanaxadiol], for which the “reduction of SG cell number compared to control cells” value in assay [1] was determined as 50%. The “cell numbers of human oral cancer OECM-1 cells” value in assay [2] is recorded as “dose-dependently inhibited”. Besides, the results for the “apoptotic DNA breaks in OECM-1 cells” value in assay [3] (10 μg/ml) and in assay [3] (20 μg/ml) were “not 10 μg/ml ginsenoside M1 significantly induced” and “significantly induced”, respectively. Besides, the “migration ability of SAS cells” value in assay [4] (5 μg/ml) and in assay [4] (10 μg/ml) was “significantly inhibited” each time. In addition, the “migration ability of OECM-1 cells” value in assay [5] (5 μg/ml) and in assay [5] (10 μg/ml) was “significantly inhibited” throughout.
